Reference: ChEMBL document CHEMBL1201862, “PubChem BioAssay data set” (2004)
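All cell lines were grown in 96-well plates and treated with compound for 48 hours. GI50: concentration for 50% inhibition of growth.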 The source made the active and inactive calls. Rule as the data show it: active = GI50 up to about 1.1 µM and inactive = higher.

What was measured:
Assay in all cases: growth of human tumour cells (NCI), 48 h
CAKI-1 = test system: CAKI-1
MDA-N = test system: MDA-N
SR = test system: SR
NCI-H23 = test system: NCI-H23
RXF 393 = test system: RXF 393
TK-10 = test system: TK-10
ACHN = test system: ACHN
HT-29 = test system: HT-29
M14 = test system: M14
NCI-H460 = test system: NCI-H460
HCT-116 = test system: HCT-116
SF-268 = test system: SF-268
COLO 205 = test system: COLO 205
HOP-92 = test system: HOP-92
EKVX = test system: EKVX
A498 = test system: A498
SNB-19 = test system: SNB-19
MDA-MB-435 = test system: MDA-MB-435
KM12 = test system: KM12
Hs-578T = test system: Hs-578T

Row | Structure (SMILES) | GI50 (CAKI-1) | GI50 (MDA-N) | GI50 (SR) | GI50 (NCI-H23) | GI50 (RXF 393) | GI50 (TK-10) | GI50 (ACHN) | GI50 (HT-29) | GI50 (M14) | GI50 (NCI-H460) | GI50 (HCT-116) | GI50 (SF-268) | GI50 (COLO 205) | GI50 (HOP-92) | GI50 (EKVX) | GI50 (A498) | GI50 (SNB-19) | GI50 (MDA-MB-435) | GI50 (KM12) | GI50 (Hs-578T)
1 | Nc1nn2c(nc(N)c3c(N)n[nH]c32)c1/N=N\c1ccc(Br)cc1 | > 100 µM (inactive) | 3.65 µM (inactive) | 2.72 µM (inactive) | > 5.61 µM (inactive) | > 100 µM (inactive) | 66.8 µM (inactive) | 69.3 µM (inactive) | 55.8 µM (inactive) | 5.86 µM (inactive) | > 100 µM (inactive) | 53.8 µM (inactive) | 7.66 µM (inactive) | > 63.2 µM (inactive) | 3.71 µM (inactive) | > 100 µM (inactive) | > 100 µM (inactive) | 29.9 µM (inactive) | 3.13 µM (inactive) | 13.1 µM (inactive) | 3.32 µM (inactive)
2 | C=C(C)C[C@H](Sc1nc2ccccc2s1)[C@H](C)O | 70.1 µM (inactive) | 37 µM (inactive) | 30.3 µM (inactive) | 31 µM (inactive) | 48.3 µM (inactive) | 71.3 µM (inactive) | > 100 µM (inactive) | 31.1 µM (inactive) | 77.3 µM (inactive) | 45.3 µM (inactive) | 39.4 µM (inactive) | 42.3 µM (inactive) | 35.5 µM (inactive) | 24.6 µM (inactive) | 32.4 µM (inactive) | 27.2 µM (inactive) | > 100 µM (inactive) | 37.2 µM (inactive) | 41.2 µM (inactive) | 41.3 µM (inactive)
3 | Cn1c(=O)c2c(nc3sc4nc5ccccc5nc4n32)n(C)c1=O | > 100 µM (inactive) | > 100 µM (inactive) | > 100 µM (inactive) | > 100 µM (inactive) | > 100 µM (inactive) | > 100 µM (inactive) | > 100 µM (inactive) | > 100 µM (inactive) | > 100 µM (inactive) | > 100 µM (inactive) | > 100 µM (inactive) | > 100 µM (inactive) | > 100 µM (inactive) | > 100 µM (inactive) | > 100 µM (inactive) | > 100 µM (inactive) | > 100 µM (inactive) | > 100 µM (inactive) | > 100 µM (inactive) | > 100 µM (inactive)
4 | C/C(=N\Nc1nc2ccccc2n1C)c1ccncn1 | < 0.01 µM (active) | 0.929 µM (active) | 0.082 µM (active) | 0.0402 µM (active) | 1.55 µM (inactive) | 1.52 µM (inactive) | 0.0266 µM (active) | < 0.0259 µM (active) | 0.0408 µM (active) | 0.23 µM (active) | < 0.01 µM (active) | 0.0762 µM (active) | < 0.01 µM (active) | 0.129 µM (active) | < 0.02 µM (active) | 0.14 µM (active) | 0.65 µM (active) | 0.362 µM (active) | 0.265 µM (active) | 3.1 µM (inactive)
5 | O=C1OI(C#Cc2ccccc2)c2ccccc21 | 2.61 µM (inactive) | 4.16 µM (inactive) | 1.46 µM (inactive) | 2.38 µM (inactive) | 5.43 µM (inactive) | 3.29 µM (inactive) | 2.18 µM (inactive) | 3.94 µM (inactive) | 4.38 µM (inactive) | 3.18 µM (inactive) | 2.24 µM (inactive) | 2.84 µM (inactive) | 3.37 µM (inactive) | 1.88 µM (inactive) | 2.76 µM (inactive) | 4.57 µM (inactive) | 7.29 µM (inactive) | 3.72 µM (inactive) | 3.52 µM (inactive) | 4.16 µM (inactive)
6 | O=C(/C=C/c1ccc(O)c(O)c1)O[C@H]1CCCC[C@@H]1OC(=O)/C=C/c1ccc(O)c(O)c1 | 7.48 µM (inactive) | 8.87 µM (inactive) | 5.87 µM (inactive) | 13.6 µM (inactive) | 10.5 µM (inactive) | 14.9 µM (inactive) | 7.98 µM (inactive) |  | 15.9 µM (inactive) | 5.14 µM (inactive) | 3.72 µM (inactive) | 11.6 µM (inactive) | 22.9 µM (inactive) | 8.93 µM (inactive) | 20.6 µM (inactive) | 22.3 µM (inactive) | 12.3 µM (inactive) | 8.83 µM (inactive) | 20.7 µM (inactive) | 29.9 µM (inactive)
7 | COc1ccc(-c2cc(=O)c3ccc(O)cc3o2)cc1OC | 25.7 µM (inactive) | 47.6 µM (inactive) | 13 µM (inactive) | 52.1 µM (inactive) | 5.85 µM (inactive) | 59.3 µM (inactive) | 48.9 µM (inactive) | 41.8 µM (inactive) | 72.8 µM (inactive) | 25.5 µM (inactive) | 30.2 µM (inactive) | > 100 µM (inactive) | 68.4 µM (inactive) | 56.6 µM (inactive) | 43.7 µM (inactive) | 34 µM (inactive) | 35.6 µM (inactive) | 45.5 µM (inactive) | 59.3 µM (inactive) | 32.7 µM (inactive)
